Results reported in the OPERA property sets (Mansouri et al. 2018).

conditions: not given

| SMILES | boiling point [°C] | melting point [°C] | ready biodegradability | log10 vapour pressure (mmHg) | logP | log10 Koc (L/kg) | log10 Henry constant (atm·m³/mol) |
| --- | --- | --- | --- | --- | --- | --- | --- |
| C1CCC(CCC2CCCCC2)CC1 | 272 | 11.5 |  |  |  |  |  |
| CCC(=NO)C(C)=NO |  | 172 |  |  |  |  |  |
| OCC(CO)(CO)CO |  | 260 | readily biodegradable |  |  |  |  |
| CSC#N | 133 | -5 |  | 1.08 |  |  |  |
| C=CC(=O)OCCCC | 145 | -64.6 | readily biodegradable | 0.737 |  |  |  |
| CC1(C)CC=CCC1 | 117 | -74.4 |  |  |  |  |  |
| O=C(O)c1cccc(C(=O)O)n1 |  |  | readily biodegradable |  |  |  |  |
| C=CCc1cc(C)ccc1O | 237 |  |  |  |  |  |  |
| CNCCOC(=O)/C=C1/CC[C@H]2[C@@H]([C@@H](O)C[C@@H]3[C@]2(C)CCC[C@]3(C)C(=O)OC)[C@H]1C |  | 115 |  |  |  |  |  |
| CC1(C)CC(=O)NC(=O)C1 |  | 145 |  |  |  |  |  |
| O=[N+]([O-])c1ccc(N=Nc2ccc(O)cc2O)cc1 |  | 200 |  |  |  |  |  |
| CCN(CC)C(=S)SSC(=S)N(CC)CC |  | 71.5 |  |  |  |  |  |
| CC(=O)N1CCCC(C)C1 (stereo not given) | 239 | -13.6 |  |  |  |  |  |
| Ic1cccc(-c2ccccc2)c1 |  | 26.5 |  |  |  |  |  |
| O=C=Nc1ccccc1[N+](=O)[O-] |  | 41 |  |  |  |  |  |
| O=c1oc2ccccc2cc1O |  | 154 |  |  |  |  |  |
| S=C(NC1CCCCC1)NC1CCCCC1 |  |  | not readily biodegradable |  |  |  |  |
| Oc1ccccc1-c1nc2ccccc2s1 |  | 131 |  |  |  |  |  |
| CC1CCc2ccccc2O1 (stereo not given) | 224 |  |  |  |  |  |  |
| Brc1cc(Br)c(Oc2cc(Br)c(Br)cc2Br)cc1Br |  |  |  |  | 7.9 |  |  |
| COc1cc(C(=O)NCCCCCC(=O)O)cc(OC)c1OC |  | 122 |  |  |  |  |  |
| CCC(C)(C)Cl | 85.5 | -73.5 |  |  |  |  |  |
| C=CCN=C=O | 88 |  |  |  |  |  |  |
| O=C1CC[C@@]2(O)[C@H]3Cc4ccc(O)c5c4[C@@]2(CCN3CC2CC2)[C@H]1O5 |  | 169 |  |  |  |  |  |
| CCCCCCCC(C)C | 167 | -74.6 |  | 0.276 |  |  |  |
| CC(=O)[O-].[NH4+] |  | 114 |  |  |  |  |  |

| SMILES | boiling point [°C] | melting point [°C] | ready biodegradability | log10 vapour pressure (mmHg) | logP | log10 Koc (L/kg) | log10 Henry constant (atm·m³/mol) |
| --- | --- | --- | --- | --- | --- | --- | --- |
| CC1=CC[C@@H]2CC1OC2(C)C | 184 |  |  |  |  |  |  |
| C1=CC2C=CC1C2 | 89.5 | -19.1 |  |  |  |  |  |
| Cc1ccc2sccc2c1 |  | 20.5 |  |  |  |  |  |
| OCCNc1ccccc1 | 280 | 11 |  | -2.66 |  |  |  |
| Ic1ccccc1 | 188 | -31.3 |  | 0.0253 |  | 3.1 |  |
| Cc1cc(O)cc(O)c1 | 290 | 108 | not readily biodegradable |  |  |  |  |
| COc1cc(N)c2c(c1N)C(=O)c1ccccc1C2=O |  | 242 |  |  |  |  |  |
| CN(C)c1ccc(C(=N)c2ccc(N(C)C)cc2)cc1 | 330 | 136 | not readily biodegradable |  |  | 3.31 |  |
| CN(C)CC(=O)O |  | 186 |  |  |  |  |  |
| Cc1coc(C)n1 | 108 |  |  |  |  |  |  |
| CO[C@H]1C=C[C@H](OC)O1 | 161 |  |  |  |  |  |  |
| CCCSSCCC | 194 | -85.6 |  | -0.291 |  |  |  |
| O=C(O)c1ccncc1 |  | 315 |  |  |  |  |  |
| COC(=O)C1(S(=O)(=O)c2ccc(C)cc2)CC1 |  | 97.2 |  |  |  |  |  |
| c1ccc(-c2ccccc2-c2ccccc2)cc1 | 332 | 56.2 |  | -3.6 |  |  |  |
| C=C1C(=O)OC2[C@H]1CC[C@H](C)[C@@H]1C=CC(=O)[C@@]21C (stereo not given in full) |  | 146 |  |  |  |  |  |
| c1ccc(CN2CCCCC2)cc1 | 245 |  |  |  |  |  |  |
| COc1ccc(C(=O)NCc2cccnc2)cc1C(=O)NCc1cccnc1 |  | 124 |  |  |  |  |  |
| COc1cc(C(=O)NCc2ccc(OCCN(C)C)cc2)cc(OC)c1OC |  | 189 |  |  |  |  |  |
| O=C1c2ccccc2C(=O)C1C(=O)C(c1ccccc1)c1ccccc1 |  | 146 |  | -9.99 |  |  |  |
| COc1ccc(O)c(C(C)(C)C)c1 |  |  | not readily biodegradable |  |  |  |  |
| COc1ccc2c(c1)CC[C@@H]1[C@@H]2CC[C@]2(C)C(=O)[C@H](Cl)C[C@@H]12 |  | 180 |  |  |  |  |  |
| CC(C)(CCl)C(=O)O |  | 41.5 |  |  |  |  |  |
| CCCCCCCCc1ccccc1Nc1ccccc1CCCCCCCC |  |  | not readily biodegradable |  |  |  |  |
| Nc1ccccc1S | 234 | 26 |  |  |  |  |  |
| C=CCCCCCCCCCCCC | 233 | -12 |  | -1.82 |  |  |  |

| SMILES | boiling point [°C] | melting point [°C] | ready biodegradability | log10 vapour pressure (mmHg) | logP | log10 Koc (L/kg) | log10 Henry constant (atm·m³/mol) |
| --- | --- | --- | --- | --- | --- | --- | --- |
| CC(C)(C)N(CCO)CCO |  | 42 |  |  |  |  |  |
| CNc1ccccc1C | 208 |  | not readily biodegradable |  |  |  |  |
| OCCCO | 214 | -26.7 |  | -1.36 |  |  |  |
| CC(=O)[C@@]1(O)CC[C@H]2[C@@H]3CCC4=CC(=O)CC[C@]4(C)[C@H]3CC[C@@]21C |  | 222 |  |  |  |  |  |
| CC(=O)c1ccccc1C(=O)O |  | 114 |  |  |  |  |  |
| Cc1ccc(N=C=O)cc1N=C=O | 251 | 20.5 | not readily biodegradable | -2.1 |  |  |  |
| O=c1nn[nH]c2ccccc12 |  | 217 |  |  |  |  |  |
| COC(=O)c1cc(C)ccc1O | 244 | -1 |  |  |  |  |  |
| CCNC(C)=O | 205 |  | readily biodegradable |  |  |  |  |
| CC(=O)C=O | 72 |  |  |  |  |  | -6.57 |
| CN(C)C(=O)OC1=CC(=O)CC(C)(C)C1 |  | 45.5 |  |  |  |  |  |
| CN=C(O)/C(=N/OC)c1ccccc1Oc1ccccc1 |  | 88 |  | -6.87 |  |  |  |
| O=C(c1ccc(F)cc1)C1CCN(CCn2c(=O)[nH]c3ccccc3c2=O)CC1 |  | 231 |  |  |  |  |  |
| CNC(=O)Oc1cccc2ccccc12 | 315 | 145 | readily biodegradable | -5.87 |  | 2.4 |  |
| Cc1cnccc1N |  | 108 |  |  |  |  |  |
| O=C(OCC(=O)N1CCOCC1)c1ccccc1 |  | 104 |  |  |  |  |  |
| CCOP(=S)(OCC)Oc1cc(C)nc(N(CC)CC)n1 |  | 15 |  | -3.54 |  | 2.48 |  |
| CCC(=O)C(C)=O | 108 |  |  |  |  |  |  |
| NC(=O)C(Cl)Cl | 234 | 99.4 |  |  |  |  |  |
| CCCCCCCCCC(C)C=O (stereo not given) | 171 |  |  |  |  |  |  |
| CCCCCCCCCCCCCCCCCC1CCCCC1 | 397 | 38 |  |  |  |  |  |
| C=CCCl | 45.1 | -134 | readily biodegradable | 2.57 |  |  |  |
| CCN(Cc1c(F)cccc1Cl)c1c([N+](=O)[O-])cc(C(F)(F)F)cc1[N+](=O)[O-] |  | 102 |  | -6.62 |  | 4 |  |
| COc1cccc2c(=O)c3c(n(C)c12)O[C@@H](C(C)C)C3 |  | 119 |  |  |  |  |  |
| NC(=O)NNc1ccccc1 |  | 172 |  |  |  |  |  |
| CCCCCCCCCCOC(C)=O | 244 | -15 |  |  |  |  |  |

| SMILES | boiling point [°C] | melting point [°C] | ready biodegradability | log10 vapour pressure (mmHg) | logP | log10 Koc (L/kg) | log10 Henry constant (atm·m³/mol) |
| --- | --- | --- | --- | --- | --- | --- | --- |
| CSC(=O)c1cccc2nnsc12 | 267 | 133 |  | -5.48 |  |  |  |
| O=C(O)CCCCCCCCCCF |  | 36 |  |  |  |  |  |
| CC(C)CCOC(=O)c1ccccc1 | 261 |  |  | -0.848 |  |  |  |
| O=CF | -26.5 | -142 |  | 3.46 |  |  |  |
| COC(=O)CCCCl | 175 |  |  |  |  |  |  |
| CC[C@@H](C(=O)O)c1ccccc1 | 271 | 47.5 |  |  |  |  |  |
| CCCCCCCCCCCCCCCC(=O)OC(C)C |  | 13.5 |  | -4.25 |  |  |  |
| c1ccc(C2(N3CCCCC3)CCCCC2)cc1 |  | 46.5 |  |  |  |  |  |
| Cc1nc(=O)c2ccccc2[nH]1 |  | 232 |  |  |  |  |  |
| Cc1ccnc(C)c1C | 192 |  |  |  |  |  |  |
| O=[N+]([O-])c1cccc(Cl)c1 | 236 | 46 | not readily biodegradable | -1.01 |  |  | -4.87 |
| Nc1c([N+](=O)[O-])cccc1[N+](=O)[O-] |  | 142 |  |  |  |  |  |
| C=CC(=O)O | 141 | 13.5 | readily biodegradable | 0.599 |  |  |  |
| Nc1ccc(-c2ccc(N)c(N)c2)cc1N |  | 176 |  |  |  |  |  |
| C[C@@H]1CCCC[C@@H]1C (racemic) |  | -70 |  |  |  |  |  |
| C=CC=CC=C | 78 | -12 |  | 1.95 |  |  |  |
| CCC(C)C(C(=O)OCC[N+](C)(CC)CC)c1ccccc1.[Br-] (stereo not given) |  | 102 |  |  |  |  |  |
| O=[N+]([O-])c1ccc(Cl)cc1O |  | 41 |  |  |  |  |  |
| CON(C)C(=O)Nc1ccc(Cl)cc1 |  | 81.5 |  | -3.82 |  | 2.1 |  |
| CC(=O)OOC(C)=O |  | 30 |  |  |  |  |  |
| CCN(C(C)C)C(C)C | 126 |  |  |  |  |  |  |
| CNC(=S)NC |  | 62 |  |  |  |  |  |
| N#CCCC(Br)(C#N)CBr (stereo not given) |  | 52 |  |  |  |  |  |
| O=C(O)[C@H]1O[C@@H](OCC(Cl)(Cl)Cl)[C@H](O)[C@@H](O)[C@@H]1O |  | 142 |  |  |  |  |  |

same assay, conditions: fish

| SMILES | log10 biotransformation half-life (days) | log10 BCF |
| --- | --- | --- |
| C1CCC(CCC2CCCCC2)CC1 | 0.13 |  |
| OCC(CO)(CO)CO |  | 0.1 |
| S=C(NC1CCCCC1)NC1CCCCC1 |  | 0.64 |
| Brc1cc(Br)c(Oc2cc(Br)c(Br)cc2Br)cc1Br |  | 6.13 |
| c1ccc(-c2ccccc2-c2ccccc2)cc1 | 0.86 | 3.48 |
| O=C(O)C1CCCCC1C(=O)O (stereo not given) |  | 0.3 |
| CNc1ccccc1C | -0.74 | 0.95 |
| CNC(=O)Oc1cccc2ccccc12 | -1.18 | 0.95 |
| C=CCCl | -0.93 | 0.7 |
| O=[N+]([O-])c1cccc(Cl)c1 |  | 1.89 |
| CON(C)C(=O)Nc1ccc(Cl)cc1 |  | 1.15 |
